# Laboratory results as given in PubChem BioAssay (NCI).
#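 Growth conditions: 96-well plates. Treatment: test compound, 48 hours, 5 concentrations. Analysis: linear interpolation between bracketing concentrations; unreached endpoints set to highest concentration. GI50 marks 50% less growth. TGI is the concentration that stops growth completely.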
# Tests used:
# Test in all cases: DTP human tumour cell line panel, 48 h
# [1] = test system: HCT-116 colon
# [2] = test system: HCC-2998 colon
# [3] = test system: SK-MEL-2 melanoma
# [4] = test system: NCI-H522 lung
# [5] = test system: HS 578T breast
# [6] = test system: KM12 colon
# [7] = test system: SR leukemia
# [8] = test system: A498 renal
# [9] = test system: A549 NSCLC
# [10] = test system: MALME-3M melanoma
# [11] = test system: CAKI-1 renal
# [12] = test system: OVCAR-8 ovarian
# [13] = test system: ACHN renal
# [14] = test system: U251 CNS
# [15] = test system: DU-145 prostate
# [16] = test system: HCT-15 colon
# [17] = test system: SN12C renal
# [18] = test system: RPMI-8226 leukemia
# [19] = test system: UACC-62 melanoma
# [20] = test system: HT29 colon
# [21] = test system: NCI-H226 lung
# [22] = test system: MDA-MB-435
# [23] = test system: T-47D breast
# [24] = test system: CCRF-CEM leukemia
# [25] = test system: NCI-H460 lung
# [26] = test system: MCF7 breast
# [27] = test system: RXF 393 renal
# [28] = test system: SK-MEL-5 melanoma
# [29] = test system: PC-3 prostate
# [30] = test system: SF-295 CNS
# [31] = test system: 786-0 renal
# [32] = test system: IGROV1 ovarian
# [33] = test system: OVCAR-3 ovarian
# [34] = test system: HOP-92 NSCLC
# [35] = test system: UACC-257 melanoma
# [36] = test system: MDA-MB-231 breast
# [37] = test system: SNB-19 CNS
# [38] = test system: SK-MEL-28 melanoma
# [39] = test system: OVCAR-4 ovarian
# [40] = test system: SF-268 CNS
# [41] = test system: TK-10 renal
# [42] = test system: HOP-62 NSCLC
# [43] = test system: UO-31 renal
# [44] = test system: EKVX NSCLC
# [45] = test system: NCI-H23 lung
# [46] = test system: BT-549 breast
# [47] = test system: COLO 205 colon
# [48] = test system: MOLT-4 leukemia
# [49] = test system: K-562 leukemia
# [50] = test system: M14 melanoma
# [51] = test system: OVCAR-5 ovarian
# [52] = test system: SF-539 CNS
# [53] = test system: NCI/ADR-RES ovarian
# [54] = test system: HL-60(TB) leukemia
# [55] = test system: SK-OV-3 ovarian
# [56] = test system: SW-620 colon
# [57] = test system: SNB-75 CNS
structure (smiles),measurement,setting,value
CCOC(=O)/C(C#N)=C(/NS(=O)(=O)c1cc(C)c(Cl)cc1[S-])[n+]1ccc(N(C)C)cc1,TGI,[1],> 100 µM
same,TGI,[2],> 100 µM
same,TGI,[3],> 100 µM
same,TGI,[4],> 100 µM
same,TGI,[5],> 100 µM
same,TGI,[6],> 100 µM
same,TGI,[7],> 100 µM
same,TGI,[8],> 100 µM
same,TGI,[9],> 100 µM
same,TGI,[10],> 100 µM
same,TGI,[11],> 100 µM
same,TGI,[12],> 100 µM
same,TGI,[13],> 100 µM
same,TGI,[14],> 100 µM
same,TGI,[15],> 100 µM
same,TGI,[16],> 100 µM
same,TGI,[17],> 100 µM
same,TGI,[18],> 100 µM
same,TGI,[19],> 100 µM
same,TGI,[20],> 100 µM
same,TGI,[21],> 100 µM
same,TGI,[22],> 100 µM
same,TGI,[23],> 100 µM
same,TGI,[24],> 100 µM
same,TGI,[25],> 100 µM
same,TGI,[26],> 100 µM
same,TGI,[27],> 100 µM
same,TGI,[28],> 100 µM
same,TGI,[29],> 100 µM
same,TGI,[30],> 100 µM
same,TGI,[31],> 100 µM
same,TGI,[32],> 100 µM
same,TGI,[33],> 100 µM
same,TGI,[34],91.7 µM
same,TGI,[35],> 100 µM
same,TGI,[36],> 100 µM
same,TGI,[37],> 100 µM
same,TGI,[38],> 100 µM
same,TGI,[39],> 100 µM
same,TGI,[40],> 100 µM
same,TGI,[41],> 100 µM
same,TGI,[42],> 100 µM
same,TGI,[43],> 100 µM
same,TGI,[44],> 100 µM
same,TGI,[45],> 100 µM
same,TGI,[46],> 100 µM
same,TGI,[47],> 100 µM
same,TGI,[48],> 100 µM
same,TGI,[49],> 100 µM
same,TGI,[50],> 100 µM
same,TGI,[51],> 100 µM
same,TGI,[52],> 100 µM
same,TGI,[53],> 100 µM
same,TGI,[54],> 100 µM
same,TGI,[55],> 100 µM
CCc1ccc(C2=C/C(=C/c3ccc(Cl)cc3)C(=O)N2CCc2ccc(S(N)(=O)=O)cc2)cc1,GI50,[1],1.74 µM
same,TGI,[1],3.23 µM
same,GI50,[2],2.59 µM
same,TGI,[2],7.2 µM
same,GI50,[3],2.27 µM
same,TGI,[3],7.76 µM
same,GI50,[4],2.55 µM
same,TGI,[4],7.39 µM
same,GI50,[5],3.05 µM
same,TGI,[5],10.9 µM
same,GI50,[6],3.02 µM
same,TGI,[6],10.1 µM
same,GI50,[9],2.6 µM
same,TGI,[9],7.37 µM
same,GI50,[10],1.96 µM
same,TGI,[10],5.19 µM
same,GI50,[11],2.91 µM
same,TGI,[11],12.4 µM
same,GI50,[12],3.2 µM
same,TGI,[12],13.1 µM
same,GI50,[13],1.94 µM
same,TGI,[13],4.23 µM
same,GI50,[14],2 µM
same,TGI,[14],4.2 µM
same,GI50,[15],3.77 µM
same,TGI,[15],15.4 µM
same,GI50,[16],2.98 µM
same,TGI,[16],12.9 µM
same,GI50,[18],2.28 µM
same,TGI,[18],6.14 µM
same,GI50,[19],1.82 µM
same,TGI,[19],6.22 µM
same,GI50,[20],2.22 µM
same,TGI,[20],4.58 µM
same,GI50,[21],2.37 µM
same,TGI,[21],6.34 µM
same,GI50,[22],2.15 µM
same,TGI,[22],4.81 µM
same,GI50,[23],3.09 µM
same,TGI,[23],11.9 µM
same,GI50,[24],3.44 µM
same,TGI,[24],32.8 µM
same,GI50,[26],2.22 µM
same,TGI,[26],7.99 µM
same,GI50,[27],1.74 µM
same,TGI,[27],3.79 µM
same,GI50,[56],3 µM
same,TGI,[56],11.8 µM
same,GI50,[28],1.63 µM
same,TGI,[28],3.07 µM
same,GI50,[29],1.9 µM
same,TGI,[29],5.36 µM
same,GI50,[30],1.77 µM
same,TGI,[30],3.72 µM
same,GI50,[31],1.86 µM
same,TGI,[31],3.53 µM
same,GI50,[32],3.26 µM
same,TGI,[32],12.7 µM
same,GI50,[33],2.12 µM
same,TGI,[33],4.6 µM
same,GI50,[34],1.67 µM
same,TGI,[34],4.8 µM
same,GI50,[35],3.79 µM
same,TGI,[35],15.3 µM
same,GI50,[36],2.36 µM
same,TGI,[36],5.92 µM
same,GI50,[37],2.98 µM
same,TGI,[37],13.7 µM
same,GI50,[38],4.28 µM
same,TGI,[38],15.8 µM
same,GI50,[39],2.56 µM
same,TGI,[39],8.03 µM
same,GI50,[40],4.63 µM
same,TGI,[40],25.9 µM
same,GI50,[41],2.21 µM
same,TGI,[41],7.37 µM
same,GI50,[42],2.42 µM
same,TGI,[42],5.86 µM
same,GI50,[43],1.55 µM
same,TGI,[43],4.53 µM
same,GI50,[44],2.62 µM
same,TGI,[44],10 µM
same,GI50,[45],2.45 µM
same,TGI,[45],7.46 µM
same,GI50,[46],1.79 µM
same,TGI,[46],3.42 µM
same,GI50,[47],1.78 µM
same,TGI,[47],3.54 µM
same,GI50,[48],2.19 µM
same,TGI,[48],6.87 µM
same,GI50,[49],2.81 µM
same,TGI,[49],> 100 µM
same,GI50,[50],2.08 µM
same,TGI,[50],5.26 µM
same,GI50,[51],2.18 µM
same,TGI,[51],5.7 µM
same,GI50,[52],2.11 µM
same,TGI,[52],4.12 µM
same,GI50,[53],4.6 µM
same,TGI,[53],41.4 µM
same,GI50,[54],2.12 µM
same,TGI,[54],5.35 µM
same,GI50,[57],2.79 µM
same,TGI,[57],12.9 µM
same,GI50,[55],3.11 µM
same,TGI,[55],9.15 µM
